Test [1] concerns Radical scavenging activity. Nature of the test: Antioxidant activity assessed as DPPH radical scavenging activity. The class given is functional. (Loss of DPPH colour is used to gauge radical scavenging.)
The nature of test [2]: Antioxidant activity assessed as ferric ion reducing activity using fe3+-TPTZ at 20 ug/ml by FRAP assay. The class given is functional.
Test [3] in a line: Antioxidant activity assessed as ferric ion reducing activity using fe3+-TPTZ at 40 ug/ml by FRAP assay. The format is functional.
Test [4] is described as follows: Antioxidant activity assessed as ferric ion reducing activity using fe3+-TPTZ at 80 ug/ml by FRAP assay. The format is functional.
Test [5] has as its system Liver. Nature of the test: Inhibition of H2O2-induced lipid peroxidation in rat liver homogenates assessed as malondialdehyde level after 4 hrs. The format is functional, tissue-based.
The test system of test [6] is Liver. In words: Inhibition of H2O2-induced lipid peroxidation in rat liver homogenates assessed as malondialdehyde level at 80 ug/ml after 4 hrs. The format is functional, tissue-based.
Test [7] has as its system Liver. Nature of the test: Inhibition of H2O2-induced lipid peroxidation in rat liver homogenates assessed as malondialdehyde level at 32 ug/ml after 4 hrs. The class given is functional, tissue-based.

By IC50 is commonly meant the midpoint of a concentration-inhibition curve. For orientation: inhibition means how much of the control response was suppressed.

Values after ≈ are worked out from the molar mass of the structure shown.

`Oc1ccc([C@H]2Oc3cc(O)cc(O)c3C[C@H]2O)cc1` [EPIAFZELECHIN (2R,3R)(-)]: the IC50 in test [1] was 9.25 mg/L (≈ 33.7 µM). In addition, the Activity in test [2] was 493 µM/L; in test [3], 978 µM/L; in test [4], 1510 µM/L; in test [5], 14.4 nM/ml. Also, the inhibition in test [6] came to 81.8%.
Consider `O=c1c(O)c(-c2ccc(O)c(O)c2)oc2cc(O)cc(O)c12` [QUERCETIN], for which the half-maximal inhibitory concentration (IC50) in test [1] was determined as 23.53 mg/L (≈ 77.9 µM). In addition, the Activity in test [5] came to 19.4 nM/ml. Moreover, the inhibition in test [7] was determined as 75.4%.

The record behind these values is ChEMBL document CHEMBL1764991, “Epiafzelechin from the root bark of Cassia sieberiana: detection by DART mass spectrometry, spectroscopic characterization, and antioxidant properties” (J Nat Prod, 2011).
